In patent US9689042B2, “Use of glycolytic pathways for inhibiting or measuring oncogenic signaling” (The Regents of the University of California, priority 2012, dated 2017):
“Also recorded” adds a separate entry of the source. d = 2'-deoxy (DNA); r = 2'-OH (RNA)

Tests used:
T4-2 cells [1] = conditions: for phenotypic reversion of the malignant phenotype / basal polarity / organized acinar structures / growth / proliferation (cell numbers at the colony mid-section, EdU incorporation) / rescue of the malignant (disorganized) phenotype by supplementation: 3D lrECM; for phenotypic reversion of the malignant phenotype: 2DG 4 mM, IA 20 μM, OX 50 mM, Azs 20 μM, DON 20 μM, BADGP 5 mM, TM 10 ng/ml, OGM 4 ng/ml, Rapa 0.01-1.0 μM; for basal polarity / organized acinar structures / growth / proliferation (cell numbers at the colony mid-section, EdU incorporation): same inhibitor concentrations as E1; for rescue of the malignant (disorganized) phenotype by supplementation: T4-2 cells reverted by IA 20 μM or 1.75 mM glucose, PEP 0.5 mM, pyruvate
Procedure: (§1) HMT-3522 cells were cultured on tissue culture plastic (2D) and in 3D lrECM gels with H14 medium, a 1:1 mix of DMEM/F12 (UCSF Cell Culture Facility) supplemented with 250 ng/ml insulin, 10 μg/ml transferrin, 2.6 ng/ml sodium selenite, 0.1 nM β-estradiol, 1.4 μM hydrocortisone and 5 μg/ml prolactin but no serum. S1 cells were additionally supplemented with 10 ng/ml EGF. MDA-MB-231 and HCC70 cells were cultured in DMEM and RPMI1640, respectively, and were supplemented with 10% fetal bovine serum (FBS).
(§2) For 3D lrECM cultures, S1 and T4-2 cells were seeded at 840,000 and 600,000 cells per cm3 respectively in lrECM gel (Cultrex), overlaid with H14 medium. MDA-MB-231 and HCC70 cells were seeded at 625,000 cell per cm3 and overlaid with H14 medium supplemented with 1% FBS. Cells were used for each assay after 10 days, unless otherwise indicated.
Pieces of lrECM gel containing cell colonies were suspended in approximately the same volume of phosphate buffered saline (PBS) and directly spread on glass slides. After brief air-drying, colonies were fixed with 3.7% paraformaldehyde (PFA) in PBS at room temperature (RT) for 10 min, washed with PBS containing 0.1 mM glycine, and permeabilized with 1:1 methanol/acetone at −20° C. for 10 min. After blocking with IF buffer (0.2% Triton X-100, 0.1% BSA [radioimmunoassay grade], 0.05% Tween 20, 7.7 mM NaN3 in PBS) containing 10% goat serum and 1% goat F(ab′)2 anti-mouse immunoglobulin G (IgG; Caltag) at RT for 30 min, colonies were stained with anti-α6 integrin antibody (Chemicon International) at 4° C. overnight. Colonies were washed extensively with IF buffer, and stained with Alexa 568-labeled anti-rat IgG antibody at RT for 2 hr. Colonies were washed with IF buffer again, and nuclei were stained with DAPI at RT for 10 min. Slides were briefly washed with PBS and mounted with 50% glycerol in PBS.
To test whether increased glucose metabolism itself is required for oncogenic signaling events, we utilized 3D lrECM cultures of HMT-3522, a breast cancer progression series which includes non-malignant (S1) and malignant (T4-2) human breast epithelial cells from the same individual (Briand et al., 1987; Petersen et al., 1992; Rizki et al., 2008). Using these cells, we have described the involvement and reciprocity of multiple signaling pathways including EGFR, β1 integrin, PI3K-Akt and MEK-ERK in oncogenic events (Beliveau et al., 2010; Bissell et al., 2005). […] We thus used this “phenotypic reversion” of the cancer cells as an assay to examine how the signaling integration plan of the breast acini could involve glucose metabolism.

[2] = system: EGFR, β1 integrin, Akt, MEK, GLUT3, glycolytic enzymes in T4-2 cells; test: Western blots of signaling intermediates, GLUT3 and metabolic enzymes in 3D lrECM cultures of T4-2 cells; type: cell-based, human; conditions: 3D lrECM; for recovery of β1 integrin expression and Akt activity by supplementation: T4-2 cells reverted by IA 20 μM or 1.75 mM glucose, PEP 0.5 mM, ESCA 20 μM
Procedure: Cell colonies were separated from lrECM gels by shaking in PBS containing 5 mM EDTA and the proteinase inhibitor cocktail set I (Calbiochem) on ice for 30 min. Cells were lysed in lysis buffer (1% NP-40, 1% deoxycholate, 2% SDS, 150 mM NaCl, 20 mM Tris-HCl [pH 7.4] plus 5 mM EDTA and protease inhibitor cocktail set I and phosphatase inhibitor cocktail set I [Calbiochem]) and sonicated three times for 30 sec each. Proteins were separated by SDS-PAGE, transferred to nitrocellulose membranes, and probed with antibodies against the following proteins: phosphorylated MEK, MEK, phosphorylated Akt, Akt, phosphorylated AMPK, AMPK, p70S6K, phosphorylated p70S6K, CHOP, EPAC1 (Cell Signaling), β1 integrin, EGFR, activated EGFR, HIF-1α, (Chemicon International), PFKP (Abgent), GAPDH, GLUT3 (GeneTex), LDHA, PDHE1α, DLAT, DLD, HIF-3α, Rap1, sAC, EPAC2, OGT, Lamin A/C (Santa Cruz Biotechnology), Aldolase (Polysciences), GFPT (ProteinTech Group), HIF-2α (Abcam), and HA-tag (Covance). After probing with HRP-conjugated secondary antibodies, blots were developed using SuperSignal West Femto chemiluminescence reagent (Pierce Biotechnology). Images were captured using Fluor Chem 8900 imager (Alpha Innotech).

T4-2 cells [3] = test: Lactate production assay in 3D lrECM; type: cell-based, human
Procedure: (§3) Cells suspended in 200 μl lrECM were seeded in 12 well glass-bottom plates (14 mm diameter; MatTek Corporation). Gels were overlaid with 500 μl H14 media and cultured for 10 days before each assay unless otherwise described.
For lactate production, on day 9, conditioned-media were harvested to measure lactate remaining in the 200 μl of the gel (assuming equilibrium between medium and gel, C0 nmol/μl). […] After 24 hours, total culture medium was harvested for measurement of final lactate concentrations (C nmol/μl) and total volumes (V μl) of the conditioned-media, and the cells in gel were fixed with PFA as above. Concentration of lactate in each sample was measured using a lactate assay kit (BioVision). Net lactate production within 24 hours (N) was calculated as follows: N=C×(V+200)−C0×200. Fixed cells were stained with DRAQ5, to measure total level of DNA as a surrogate for number of cells, and the staining was measured as above.
(§4) In each assay, one well, containing only lrECM, was made for background measurements. Glucose uptake measured by 2DG uptake, lactate production and MitoTracker staining were normalized using total DNA levels, and presented relative to that of control (either S1 or non-treated T4-2 cells).

T4-2 cells [4] = test: Mitochondrial activity (MitoTracker oxidation) assay in 3D lrECM; type: cell-based, human
Procedure: as §3
For mitochondrial activity, we slightly modified the method described previously (Morici et al., 2007). Briefly, cells were incubated with 2 μM MitoTracker® Orange CM-H2 TMRos (Invitrogen) for 1 hour and fixed with PFA as above. Cells were counterstained with Hoechst 33342 (Invitrogen), which is known also to bind to DNA stoichiometrically, then MitoTracker and Hoechst staining were measured by taking z-section images from top to bottom of the gels using confocal microscopy.
as §4

T4-2 cells [5] = test: Glucose uptake assay (IRDye800CW-2DG) in 3D lrECM; type: cell-based, human
Procedure: as §3
For glucose uptake assay, cells were incubated with 1 μM of IRDye800CW-2DG (LI-COR Biosciences) for 1 hour, fixed within gels with 4% paraformaldehyde (PFA) in PBS for 30 min. and stained with DRAQ5 (1:10000 dilution), an infrared dye that binds stoichiometrically to DNA, for 30 min. Cells were extensively washed with PBS, then IRDye800-2DG uptake together with DRAQ5 staining were measured by using Odyssey Infrared Imaging System (LI-COR Biosciences).
as §4

Rap1 = test: Measurement of Rap1 activity (GST-RalGDS-RBD pull-down) in T4-2 cells; type: cell-based, human; conditions: T4-2 cells treated with IA 20 μM or 1.75 mM glucose; PEP 0.5 mM, ESCA 20 μM
Procedure: Rap1 activity was measured as described previously (Itoh et al., 2007). Briefly, cell colonies were extracted from lrECM as described above, and lysed in lysis buffer (50 mM Tris-HCl [pH 7.4], 500 mM NaCl, 1% NP40, 2.5 mM MgCl2, 10% glycerol, 10 μg/ml aprotinin and 10 μg/ml leupeptin) at 4° C. for 30 min. Lysates were cleared by centrifugation at 15,000×g at 4° C. for 15 min. Supernatants (containing 300 μg protein in 300 μl) were incubated with 15 μg of GST-tagged RalGDS-RBD fusion protein immobilized on Glutathione Sepharose 4B beads (GE Healthcare), at 4° C. for 1 hr. Beads were washed trice in lysis buffer and resuspended in Laemmli buffer. Samples were separated by SDS-PAGE, followed by transfer to polyvinylidene fluoride membranes (0.2 μm pore) and immunoblotting using anti-Rap1 antibody.

S1 cells = test: 3D lrECM culture of non-malignant S1 cells: acinar morphology and growth; type: cell-based, human; conditions: 2DG 4 mM, OGM 4 ng/ml
Procedure: as §1, §2
Pieces of lrECM gel containing cell colonies were suspended in approximately the same volume of phosphate buffered saline (PBS) and directly spread on glass slides. After brief air-drying, colonies were fixed with 3.7% paraformaldehyde (PFA) in PBS at room temperature (RT) for 10 min, washed with PBS containing 0.1 mM glycine, and permeabilized with 1:1 methanol/acetone at −20° C. for 10 min. […]

T4-2 cells [6] = test: siRNA knockdown in T4-2 cells cultured in 3D-on top (3D-OT) lrECM; type: cell-based, human; conditions: 3 days
Procedure: For experiments that need to be done in shorter-term (e.g. cultures of siRNA-transfected cells or for live imaging), cells were seeded at 60,000 cells per cm2 on top (3D-OT) of lrECM gels overlaid with H14 medium containing 5% (v/v) lrECM. Cells were harvested after 3 days.
Predesigned siRNA duplexes targeting GLUT3, GFPT1, GFPT2 and OGT, as well as control siRNA were obtained from Ambion. The other siRNA duplexes were chemically synthesized and purchased from Hokkaido System Science. The sequences are as follows:
For transfection of each siRNA into T4-2 cells, Lipofectamine RNAi MAX (Invitrogen) was used, according to the manufacturer's instruction. Cells were trypsinized 36 hrs after transfection and cultured in 3D-OT lrECM for 3 days before harvest.

Molecule: [N-]=[N+]=CC(=O)OC[C@H](N)C(=O)O [AZS, Azaserine]
- phenotypic reversion of the malignant phenotype (T4-2 cells [1]; T4-2 cells): do induce phenotypic reversion; also recorded: induced the repertoire of the reversion phenotype
- basal polarity / organized acinar structures (T4-2 cells [1]; T4-2 cells): re-establishment of tissue polarity
- growth / proliferation (cell numbers at the colony mid-section, EdU incorporation) (T4-2 cells [1]; T4-2 cells): growth arrest
- levels and/or activities of EGFR, β1 integrin, Akt and MEK (oncogenic signaling) ([2]; T4-2 cells, Western blot): suppression of activation of oncogenic signaling
- EGFR expression and activity ([2]; T4-2 cells, Azs 20 μM, DON 20 μM): significantly down-regulated
- lactate production (T4-2 cells [3]): significantly down-regulated
- mitochondrial activity (oxidation) (T4-2 cells [4]): remained unaltered
- glucose uptake (T4-2 cells [5]): significantly down-regulated

Molecule: CC(=O)N[C@H]1[C@@H](OCc2ccccc2)O[C@H](CO)[C@H](O)[C@@H]1O [BADGP, Benzyl-2-acetamido-2-deoxy-α-D-galactopyranoside]
- phenotypic reversion of the malignant phenotype (T4-2 cells [1]; T4-2 cells): do induce phenotypic reversion; also recorded: induced phenotypic reversion

Molecule: CO[C@@H]1[C@@H]2OP(=O)(O)OC[C@H]2O[C@H]1n1c(Sc2ccc(Cl)cc2)nc2c(N)ncnc21 [ESCA, 8CPT-2′-OMe-cAMP]
- rescue of the malignant (disorganized) phenotype by supplementation (T4-2 cells [1]; ESCA 20 μM): loss of tissue polarity
- restoration of proliferation by supplementation (T4-2 cells [1]; T4-2 cells treated with IA 20 μM or 1.75 mM glucose, ESCA 20 μM): did not restore proliferation to the level of non-treated cultures
- recovery of β1 integrin expression and Akt activity by supplementation [2]: partially restored
- Rap1 reactivation by supplementation (Rap1): reactivated Rap1

Molecule: CC(Sc1nc2ccccc2[nH]1)C(=O)N/N=C/c1cc(Br)ccc1O (centres unmarked) [KH7]
- reactivation (disorganization, Rap1, β1 integrin and Akt) on raising glucose from 1.75 mM to 5.5 mM (T4-2 cells [1]; T4-2 cells reverted in 1.75 mM glucose, then 5.5 mM glucose with KH7): almost completely abolished
- phenotypic reversion of the malignant phenotype (T4-2 cells [1]; T4-2 cells): do induce phenotypic reversion

Molecule: CC[C@H]1/C=C/C=C/C[C@@H](C)[C@H](O)[C@@](C)(O)C(=O)[C@@H](C)[C@H](O)[C@@H](C)C(=O)[C@@H](C)[C@H](O)[C@@H](C)/C=C/C(=O)O[C@@H]2[C@H](C)[C@H](CC1)O[C@]1(CC[C@H](C)[C@H](C[C@@H](C)O)O1)[C@H]2C [OGM, Oligomycin]
- phenotypic reversion of the malignant phenotype (T4-2 cells [1]; T4-2 cells): do not induce phenotypic reversion
- basal polarity / organized acinar structures (T4-2 cells [1]; T4-2 cells): did not induce organized structures
- growth / proliferation (cell numbers at the colony mid-section, EdU incorporation) (T4-2 cells [1]; T4-2 cells): suppressing proliferation significantly
- acinar morphology, basal polarity and growth rate of non-malignant cells (S1 cells): lost basal tissue polarity

Molecule: C=C(OP(=O)(O)O)C(=O)O [PEP, phosphoenolpyruvate]
- rescue of the malignant (disorganized) phenotype by supplementation (T4-2 cells [1]; ESCA 20 μM): reproduced the disorganized structure
- recovery of β1 integrin expression and Akt activity by supplementation [2]: partially recovered
- Rap1 reactivation by supplementation (Rap1): Rap1 reactivation

Molecule: GAPDH siRNA: chemically synthesized siRNA duplex targeting GAPDH, SEQ ID NO: 1 and SEQ ID NO: 2 (chain 1 GAGCCACAUCGCUCAGACA; chain 2 UGUCUGAGCGAUGUGGCUC; listed as RNA, chemistry not fully specified)
- phenotype after siRNA knockdown (reversion) (T4-2 cells [6]): essentially reproduced the above results

Molecule: Tunicamycin [TM]
- phenotypic reversion of the malignant phenotype (T4-2 cells [1]; T4-2 cells): do not induce phenotypic reversion; also recorded: did not lead to phenotypic reversion
- cell death (T4-2 cells [1]; T4-2 cells, increasing amounts of tunicamycin (data not shown)): induced significant cell death

Molecule: sAC siRNA: chemically synthesized siRNA duplex targeting sAC, SEQ ID NO: 7 and SEQ ID NO: 8 (chain 1 AUGUAGCCUGGAGAUCCAUTT; chain 2 AUGGAUCUCCAGGCUACAUTT; sugars from the 5' end r19 d2, backbone not given here)
- phenotype after siRNA knockdown (reversion) (T4-2 cells [6]): induced phenotypic reversion
